Assay results reported in PMC6576746, “Rational discovery of dual-indication multi-target PDE/Kinase inhibitor for precision anti-cancer therapy using structural systems pharmacology” (PLoS Computational Biology, 2019).

What was measured:
Test in all cases: biochemical
Design in all cases: DiscoverX KinomeScan competition binding assay across human kinases; per cent of control at 10 and 100 uM
IKK-alpha = target: T1, IKK-alpha (Homo sapiens, UniProt O15111); settings: competition binding, % of control; read-out: Percent Control (100 uM Levosimendan)
T1 construct: gene CHUK
Outline: (§1)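 Binding is expressed as %control, normalised between positive and negative control signals. The compound (levosimendan) was tested at 10 μM and 100 μM in the DiscoverX KinomeScan competition binding format against human kinases.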

MLK1 = target: T2, MLK1 (Homo sapiens, UniProt P80192); settings: competition binding, % of control; read-out: Percent Control (100 uM Levosimendan)
T2 construct: gene MAP3K9
Outline: as §1

MELK = MELK (Homo sapiens, UniProt Q14680); settings: competition binding, % of control; read-out: Percent Control (100 uM Levosimendan)
Outline: as §1

BLK = BLK (Homo sapiens, UniProt P51451); settings: competition binding, % of control
Chain of BLK (P51451 whole entry): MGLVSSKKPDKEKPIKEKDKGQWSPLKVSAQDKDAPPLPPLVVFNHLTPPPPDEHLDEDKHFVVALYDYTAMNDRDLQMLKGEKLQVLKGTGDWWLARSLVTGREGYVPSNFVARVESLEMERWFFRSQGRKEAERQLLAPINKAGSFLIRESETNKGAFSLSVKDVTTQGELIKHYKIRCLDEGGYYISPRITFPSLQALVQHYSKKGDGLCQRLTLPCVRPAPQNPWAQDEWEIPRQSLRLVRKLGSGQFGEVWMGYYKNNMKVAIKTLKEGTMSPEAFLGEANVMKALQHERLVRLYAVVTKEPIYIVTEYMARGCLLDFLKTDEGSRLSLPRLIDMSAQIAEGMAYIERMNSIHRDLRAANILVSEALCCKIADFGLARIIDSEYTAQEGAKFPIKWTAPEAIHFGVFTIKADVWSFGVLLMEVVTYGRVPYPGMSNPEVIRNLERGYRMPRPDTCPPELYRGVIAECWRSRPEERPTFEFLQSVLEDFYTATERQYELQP
Outline: as §1

TAOK3 = TAOK3 (Homo sapiens, UniProt Q9H2K8); settings: competition binding, % of control; read-out: Percent Control (100 uM Levosimendan)
Outline: as §1

TTK = TTK (Homo sapiens, UniProt P33981); settings: competition binding, % of control; read-out: Percent Control (100 uM Levosimendan)
Outline: as §1

ZAP70 = ZAP70 (Homo sapiens, UniProt P43403); settings: competition binding, % of control; read-out: Percent Control (100 uM Levosimendan)
Chain of ZAP70 (P43403 whole entry): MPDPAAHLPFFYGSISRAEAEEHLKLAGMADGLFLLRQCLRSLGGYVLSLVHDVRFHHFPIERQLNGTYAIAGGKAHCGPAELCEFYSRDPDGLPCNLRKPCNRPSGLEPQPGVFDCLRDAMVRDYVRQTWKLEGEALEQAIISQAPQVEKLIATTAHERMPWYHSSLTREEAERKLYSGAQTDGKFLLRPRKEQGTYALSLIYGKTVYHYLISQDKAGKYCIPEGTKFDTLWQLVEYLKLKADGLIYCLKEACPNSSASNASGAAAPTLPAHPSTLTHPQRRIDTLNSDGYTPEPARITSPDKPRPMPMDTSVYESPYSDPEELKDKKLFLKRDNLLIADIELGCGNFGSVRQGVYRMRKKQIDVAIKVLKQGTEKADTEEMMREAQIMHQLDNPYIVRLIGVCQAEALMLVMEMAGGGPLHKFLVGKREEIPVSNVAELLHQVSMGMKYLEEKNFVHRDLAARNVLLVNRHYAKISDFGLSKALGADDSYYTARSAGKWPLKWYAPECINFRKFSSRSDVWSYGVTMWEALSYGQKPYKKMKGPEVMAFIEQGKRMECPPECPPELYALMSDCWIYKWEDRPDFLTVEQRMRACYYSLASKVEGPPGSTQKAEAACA
Outline: as §1

CAMK2G = CAMK2G (Homo sapiens, UniProt Q13555); settings: competition binding, % of control; read-out: Percent Control (100 uM Levosimendan)
Outline: as §1

ERK8 = target: T3, ERK8 (Homo sapiens, UniProt Q8TD08); settings: competition binding, % of control; read-out: Percent Control (100 uM Levosimendan)
T3 construct: gene MAPK15
Outline: as §1

ERBB2 = ERBB2 (Homo sapiens, UniProt P04626); settings: competition binding, % of control; read-out: Percent Control (100 uM Levosimendan)
Outline: as §1

KIT-autoinhibited = KIT-autoinhibited (Homo sapiens, UniProt P10721); settings: competition binding, % of control
Chain of KIT-autoinhibited (P10721 whole entry): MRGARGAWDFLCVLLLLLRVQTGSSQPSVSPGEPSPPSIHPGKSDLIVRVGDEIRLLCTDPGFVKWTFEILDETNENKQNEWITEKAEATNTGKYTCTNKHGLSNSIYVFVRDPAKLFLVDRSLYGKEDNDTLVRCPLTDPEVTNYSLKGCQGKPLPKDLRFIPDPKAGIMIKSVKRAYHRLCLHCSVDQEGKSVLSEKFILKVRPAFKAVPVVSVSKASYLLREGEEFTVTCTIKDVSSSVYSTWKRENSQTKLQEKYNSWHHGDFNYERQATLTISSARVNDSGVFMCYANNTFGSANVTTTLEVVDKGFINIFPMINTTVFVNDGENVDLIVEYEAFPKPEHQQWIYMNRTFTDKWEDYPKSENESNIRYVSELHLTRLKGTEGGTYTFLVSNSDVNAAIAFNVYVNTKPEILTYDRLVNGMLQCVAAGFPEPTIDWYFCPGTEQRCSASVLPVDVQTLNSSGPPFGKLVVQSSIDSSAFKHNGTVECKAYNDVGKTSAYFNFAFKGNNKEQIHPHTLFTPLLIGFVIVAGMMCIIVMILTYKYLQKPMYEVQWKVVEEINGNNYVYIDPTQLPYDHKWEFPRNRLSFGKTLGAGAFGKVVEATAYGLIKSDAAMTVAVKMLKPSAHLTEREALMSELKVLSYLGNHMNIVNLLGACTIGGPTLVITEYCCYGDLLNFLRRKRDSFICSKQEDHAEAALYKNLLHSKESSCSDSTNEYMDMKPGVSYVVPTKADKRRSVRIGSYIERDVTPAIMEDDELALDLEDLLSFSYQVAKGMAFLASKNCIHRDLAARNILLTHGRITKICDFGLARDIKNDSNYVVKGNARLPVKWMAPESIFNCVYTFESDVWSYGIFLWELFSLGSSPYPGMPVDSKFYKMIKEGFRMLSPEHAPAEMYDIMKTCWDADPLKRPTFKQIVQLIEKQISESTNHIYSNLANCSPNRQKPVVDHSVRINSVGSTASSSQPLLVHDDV
Outline: as §1

ABL1-phosphorylated = target: T4, ABL1-phosphorylated (Homo sapiens, UniProt P00519); settings: competition binding, % of control
T4 construct: phosphorylated
T4 sequence (P00519 whole entry): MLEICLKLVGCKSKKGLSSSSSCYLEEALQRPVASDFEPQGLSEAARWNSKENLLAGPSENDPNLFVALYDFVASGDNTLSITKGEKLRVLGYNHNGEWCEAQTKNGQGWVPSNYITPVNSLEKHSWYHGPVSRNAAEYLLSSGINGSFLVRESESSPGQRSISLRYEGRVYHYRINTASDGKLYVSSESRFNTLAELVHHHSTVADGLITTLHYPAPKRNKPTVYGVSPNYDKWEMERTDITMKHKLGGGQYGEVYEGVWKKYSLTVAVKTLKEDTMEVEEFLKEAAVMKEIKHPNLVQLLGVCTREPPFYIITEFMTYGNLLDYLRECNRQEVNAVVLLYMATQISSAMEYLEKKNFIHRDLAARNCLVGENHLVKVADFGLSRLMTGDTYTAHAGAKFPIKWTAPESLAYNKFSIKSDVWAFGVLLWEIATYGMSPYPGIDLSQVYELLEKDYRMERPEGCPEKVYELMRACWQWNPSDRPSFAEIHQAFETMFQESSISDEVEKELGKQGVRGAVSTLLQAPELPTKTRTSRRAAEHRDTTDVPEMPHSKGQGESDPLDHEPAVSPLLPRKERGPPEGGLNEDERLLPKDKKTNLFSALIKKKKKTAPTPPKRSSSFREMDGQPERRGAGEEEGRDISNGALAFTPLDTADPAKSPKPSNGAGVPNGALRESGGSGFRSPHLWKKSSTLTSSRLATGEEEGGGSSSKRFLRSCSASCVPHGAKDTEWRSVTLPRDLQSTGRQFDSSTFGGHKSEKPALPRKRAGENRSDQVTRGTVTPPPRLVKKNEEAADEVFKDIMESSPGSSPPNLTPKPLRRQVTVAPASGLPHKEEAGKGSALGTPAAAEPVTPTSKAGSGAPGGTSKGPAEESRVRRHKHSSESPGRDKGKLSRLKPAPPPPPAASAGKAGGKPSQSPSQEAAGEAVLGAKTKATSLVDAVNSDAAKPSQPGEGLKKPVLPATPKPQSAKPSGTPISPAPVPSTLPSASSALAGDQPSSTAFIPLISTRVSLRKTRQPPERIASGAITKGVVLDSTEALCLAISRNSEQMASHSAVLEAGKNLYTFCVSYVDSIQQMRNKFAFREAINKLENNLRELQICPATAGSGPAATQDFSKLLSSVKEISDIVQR
Outline: as §1

FLT3 = FLT3 (Homo sapiens, UniProt P36888); settings: competition binding, % of control
Chain of FLT3 (P36888 whole entry): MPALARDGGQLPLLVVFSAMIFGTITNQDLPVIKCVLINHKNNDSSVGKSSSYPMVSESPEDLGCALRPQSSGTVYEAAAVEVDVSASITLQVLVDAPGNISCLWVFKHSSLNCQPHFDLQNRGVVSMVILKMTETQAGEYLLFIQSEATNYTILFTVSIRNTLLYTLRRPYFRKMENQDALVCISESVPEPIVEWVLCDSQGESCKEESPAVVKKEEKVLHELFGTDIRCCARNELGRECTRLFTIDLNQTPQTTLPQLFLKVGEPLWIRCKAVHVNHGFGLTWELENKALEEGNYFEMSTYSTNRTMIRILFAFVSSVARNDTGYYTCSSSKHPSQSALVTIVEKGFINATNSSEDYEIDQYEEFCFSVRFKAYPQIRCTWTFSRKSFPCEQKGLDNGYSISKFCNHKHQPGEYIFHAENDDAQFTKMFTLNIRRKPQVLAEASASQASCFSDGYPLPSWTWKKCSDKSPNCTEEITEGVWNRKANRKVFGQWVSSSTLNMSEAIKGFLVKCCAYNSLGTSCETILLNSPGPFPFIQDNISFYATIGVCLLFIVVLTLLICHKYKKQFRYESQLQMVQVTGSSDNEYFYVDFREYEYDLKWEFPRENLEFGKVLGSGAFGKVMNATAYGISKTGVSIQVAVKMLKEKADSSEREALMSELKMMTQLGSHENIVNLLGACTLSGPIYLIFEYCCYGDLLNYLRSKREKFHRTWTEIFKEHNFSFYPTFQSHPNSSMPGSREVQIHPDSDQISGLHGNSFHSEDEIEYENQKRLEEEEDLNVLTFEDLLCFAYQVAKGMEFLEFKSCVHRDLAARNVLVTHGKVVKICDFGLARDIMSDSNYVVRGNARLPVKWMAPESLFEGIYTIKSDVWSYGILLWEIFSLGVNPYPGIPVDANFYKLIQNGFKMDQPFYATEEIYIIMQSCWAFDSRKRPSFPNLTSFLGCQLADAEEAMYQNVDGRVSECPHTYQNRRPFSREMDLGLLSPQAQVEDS
Outline: as §1

MST3 = target: T5, MST3 (Homo sapiens, UniProt Q9Y6E0); settings: competition binding, % of control; read-out: Percent Control (100 uM Levosimendan)
T5 construct: gene STK24
Outline: as §1

YANK1 = target: T6, YANK1 (Homo sapiens, UniProt Q8WU08); settings: competition binding, % of control; read-out: Percent Control (100 uM Levosimendan)
T6 construct: gene STK32A
Outline: as §1

FGFR1 = FGFR1 (Homo sapiens, UniProt P11362); settings: competition binding, % of control
Chain of FGFR1 (P11362 whole entry): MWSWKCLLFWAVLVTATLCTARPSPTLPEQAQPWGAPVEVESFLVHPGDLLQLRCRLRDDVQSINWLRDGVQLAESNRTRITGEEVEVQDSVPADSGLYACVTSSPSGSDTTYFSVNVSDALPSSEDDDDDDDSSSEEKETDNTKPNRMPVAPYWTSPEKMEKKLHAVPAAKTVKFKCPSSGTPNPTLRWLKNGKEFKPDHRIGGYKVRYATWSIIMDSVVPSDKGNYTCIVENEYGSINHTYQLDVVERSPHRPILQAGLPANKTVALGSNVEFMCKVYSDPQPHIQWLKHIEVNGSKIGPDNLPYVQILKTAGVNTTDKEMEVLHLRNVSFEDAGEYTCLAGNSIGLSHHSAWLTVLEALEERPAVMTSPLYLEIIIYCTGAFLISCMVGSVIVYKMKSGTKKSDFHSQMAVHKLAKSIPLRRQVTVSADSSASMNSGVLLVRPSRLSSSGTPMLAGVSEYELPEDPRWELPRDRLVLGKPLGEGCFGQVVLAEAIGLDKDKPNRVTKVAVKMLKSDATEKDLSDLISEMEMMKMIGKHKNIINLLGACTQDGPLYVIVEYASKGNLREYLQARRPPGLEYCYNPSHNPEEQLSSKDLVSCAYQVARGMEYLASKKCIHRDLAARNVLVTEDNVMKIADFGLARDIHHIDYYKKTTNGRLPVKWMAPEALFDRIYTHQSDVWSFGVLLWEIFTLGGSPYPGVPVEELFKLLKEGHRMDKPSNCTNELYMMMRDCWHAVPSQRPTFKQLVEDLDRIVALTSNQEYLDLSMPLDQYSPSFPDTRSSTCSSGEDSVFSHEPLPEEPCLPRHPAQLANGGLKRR
Outline: as §1

CDC2L1 = target: T7, CDC2L1 (Homo sapiens, UniProt P21127); settings: competition binding, % of control; read-out: Percent Control (100 uM Levosimendan)
T7 construct: gene CDK11B
Outline: as §1

GSK3A = GSK3A (Homo sapiens, UniProt P49840); settings: competition binding, % of control; read-out: Percent Control (100 uM Levosimendan)
Outline: as §1

PAK2 = PAK2 (Homo sapiens, UniProt Q13177); settings: competition binding, % of control; read-out: Percent Control (100 uM Levosimendan)
Outline: as §1

[1] = read-out: Percent Control (10 uM Levosimendan)
[2] = read-out: Percent Control (100 uM Levosimendan)

C[C@@H]1CC(=O)NN=C1c1ccc(NN=C(C#N)C#N)cc1 [levosimendan]
remaining binding at 100 µM (IKK-alpha): 59%
remaining binding at 100 µM (MLK1): 79%
remaining binding at 100 µM (MELK): 100%
remaining binding at 10 µM (BLK; [1]): 79%
remaining binding at 100 µM (BLK; [2]): 50%
remaining binding at 100 µM (TAOK3): 100%
remaining binding at 100 µM (TTK): 86%
remaining binding at 100 µM (ZAP70): 74%
remaining binding at 100 µM (CAMK2G): 88%
remaining binding at 100 µM (ERK8): 100%
remaining binding at 100 µM (ERBB2): 100%
remaining binding at 10 µM (KIT-autoinhibited; [1]): 76%
remaining binding at 100 µM (KIT-autoinhibited; [2]): 52%
remaining binding at 10 µM (ABL1-phosphorylated; [1]): 100%
remaining binding at 100 µM (ABL1-phosphorylated; [2]): 37%
remaining binding at 10 µM (FLT3; [1]): 24%
remaining binding at 100 µM (FLT3; [2]): 0.9%
remaining binding at 100 µM (MST3): 96%
remaining binding at 100 µM (YANK1): 94%
remaining binding at 10 µM (FGFR1; [1]): 98%
remaining binding at 100 µM (FGFR1; [2]): 50%
remaining binding at 100 µM (CDC2L1): 100%
remaining binding at 100 µM (GSK3A): 100%
remaining binding at 100 µM (PAK2): 78%
